Measured values: PMC9728921, “Characterization of a KDM5 small molecule inhibitor with antiviral activity against hepatitis B virus” (PLOS ONE, 2022)
“Also recorded” adds a separate entry of the source.

Assays:
EZH2/EED/SUZ12 = target: T1, EZH2/EED/SUZ12 (Homo sapiens, UniProt O75530+Q15022+Q15910); assay: Histone methyltransferase enzymatic assay, EZH2/EED/SUZ12; format: biochemical; settings: enzyme conc. 100 nM
T1 construct: 2-746/2-441/2-739; purchased BPS
Method: (§1) Histone methyltransferase assays were performed in 96-well half-area optiplates (PerkinElmer) at room temperature. All concentrations are final unless noted otherwise. Compounds were serially diluted in DMSO and the final DMSO concentration was 1%. A 24 μL reaction mixture contained compound, enzyme, 200 nM of nucleosome or histone substrate, 400 nM ^3H-SAM (83.1 Ci/mmol), 50 mM Tris-HCl (pH 8.0), 50 mM NaCl, 5 mM MgCl2, 1 mM DTT, and 0.01% Tween-20. The plate was sealed, mixed on a Titramax plate shaker at 1200 rpm for 30 sec, and incubated at room temperature for 60 min. The reaction was quenched by addition of 24 μL mixture containing 5 mg/mL PVT-PEI beads and 300 μM unlabeled SAM in water. The plate was sealed, mixed as previously noted, incubated overnight, and read on a TopCount plate reader (PerkinElmer).
(§2) Data was analyzed using GraphPad Prism 6.0 (La Jolla, CA). […] IC50 values were calculated as an average of at least two independent experiments.

[1] = Liver to plasma AUC ratio, rat; format: in vivo, Sprague Dawley rats; settings: male, Sprague Dawley, liver and plasma, po, 1 mg/kg, read-out: GS-080 liver to plasma AUC ratio
Method: Rats and monkeys were dosed by oral gavage once with 1 mg/kg or 2.5 mg/kg, respectively. The rat study included a vehicle control group (water). Serial venous blood samples were taken at 0, 0.25, 0.5, 1, 2, 4, 6, 8, 12, and 24 hours post dose from each animal and collected into vacutainer tubes containing potassium oxalate/sodium fluoride (Thermo Fisher; BD367925) as the anti-coagulant and blood was centrifuged for plasma isolation. […] For monkey, liver samples were taken by biopsy at pre-dose, 1, 4, 24, 48, and 72 hours post dose (n = 2 per time point). Rat and monkey livers were weighed and immediately flash frozen in liquid nitrogen.
500 μL of cold HPLC grade water was added to each monkey liver biopsy sample and rat liver samples were diluted 3-fold with cold HPLC grade water. Diluted liver samples were homogenized between 1 and 3 minutes. 50 μL of plasma samples and homogenized liver samples were quenched with 200 μL of 0.05% formic acid in acetonitrile. […] An Agilent 1200 series binary pump (Santa Clara, CA; G1312A) was used for elution and separation of compounds with a Hypersil Gold C18 HPLC column (Thermo Fisher; 50 x 3.0 mm, 5 μm) over 6.75 minutes with 99–3% gradient of Mobile Phase A (1% acetonitrile in 2.5 mM ammonium formate aqueous solution pH 2.6) and 1–97% gradient Mobile Phase B (90% acetonitrile in aqueous 10 mM ammonium formate pH 6.8).

SET7/9 = target: T2, SET7/9 (Homo sapiens, UniProt Q8WTS6); assay: Histone methyltransferase enzymatic assay, SET7/9; format: biochemical; settings: enzyme conc. 100 nM
T2 construct: 2-366; purchased RBC (read as Reaction Biology Corporation, named)
Method: as §1, §2

H3K4 methylation = assay: Histone mass spectrometry of H3K4 methylation in PHH; format: cell-based, human; settings: uninfected PHH; 10 μM every 3 days; Day 7
Method: Approximately 25 million PHH from Donor (Bioreclamation) were plated on collagen coated (Coating Matrix kit, Life Technologies, Cat. #R-011-K) plates (coated for 30 minutes at 37°C and subsequently washed twice with PHH plating medium). The PHH plating medium was removed after 16 hours and replaced with PHH maintenance medium (Day 0). […] Modifications to the manufacturer’s protocol included two PBS washes prior to adding the histone extraction buffer to the cells, precipitation of eluted histones in 8% perchloric acid, and a single wash in cold acetone containing 0.2% HCl.
Fresh 1:100 propionic anhydride:water reagent was prepared and 1 μl of mixture was added immediately to the histone sample with vortexing and incubated for 5 minutes at 25°C. The reaction was quenched with 1 μl of 80 mM hydroxylamine for 20 minutes at 25°C. […]
1 μl of sample was injected using a Thermo Fischer Scientific Ultimate 3000 Autosampler (San Jose, CA) onto a 15 cm x 75 μm Thermo Fischer Scientific ES812 Easyspray nano column with 5 μm particle size. […] Each sample was analyzed three times.
Data was searched using Thermo Fischer Scientific Proteome Discoverer V2.1 software. […] The ratio of drug treated/control was calculated for each sample and then corrected using the average protein level ratio to account for differences in total protein between control and treated samples.

HBV cccDNA = assay: cccDNA levels by Southern blot in HBV-infected PHH; format: cell-based, Hepatitis B virus; settings: 1 or 10 µM every three to four days for 14 days
Method: PHH were plated in 24-well plates at 350,000–400,000 live cells per well and infected with HBV genotype D as described above. […] DNA was isolated from PHH using a MasterPure Complete DNA Purification kit (Epicentre, Madison, WI; MC85200) according to the manufacturer’s instructions, but omitting ProteinaseK or RNaseA treatment. After isolation, DNA was treated with T5 exonuclease (New England Biolabs, Ipswich, MA; M0363S) according to the manufacturer’s instructions.
cccDNA and host mitochondrial DNA (ND4) levels were examined by Southern blot using branched DNA signal amplification (bDNA) method as previously described. All probes and reagents were purchased from Thermo Fisher Scientific.
PHH were infected with HBV for three days prior to initiation of GS-5801 treatment. […] Total DNA was isolated, treated with T5 exonuclease to reduce levels of relaxed circular HBV DNA (rcDNA), and probed for cccDNA and mitochondrial DNA (Mt ND4: NADH-ubiquinone oxidoreductase chain 4) by Southern blot.

T1 sequence (Q15910 2-746): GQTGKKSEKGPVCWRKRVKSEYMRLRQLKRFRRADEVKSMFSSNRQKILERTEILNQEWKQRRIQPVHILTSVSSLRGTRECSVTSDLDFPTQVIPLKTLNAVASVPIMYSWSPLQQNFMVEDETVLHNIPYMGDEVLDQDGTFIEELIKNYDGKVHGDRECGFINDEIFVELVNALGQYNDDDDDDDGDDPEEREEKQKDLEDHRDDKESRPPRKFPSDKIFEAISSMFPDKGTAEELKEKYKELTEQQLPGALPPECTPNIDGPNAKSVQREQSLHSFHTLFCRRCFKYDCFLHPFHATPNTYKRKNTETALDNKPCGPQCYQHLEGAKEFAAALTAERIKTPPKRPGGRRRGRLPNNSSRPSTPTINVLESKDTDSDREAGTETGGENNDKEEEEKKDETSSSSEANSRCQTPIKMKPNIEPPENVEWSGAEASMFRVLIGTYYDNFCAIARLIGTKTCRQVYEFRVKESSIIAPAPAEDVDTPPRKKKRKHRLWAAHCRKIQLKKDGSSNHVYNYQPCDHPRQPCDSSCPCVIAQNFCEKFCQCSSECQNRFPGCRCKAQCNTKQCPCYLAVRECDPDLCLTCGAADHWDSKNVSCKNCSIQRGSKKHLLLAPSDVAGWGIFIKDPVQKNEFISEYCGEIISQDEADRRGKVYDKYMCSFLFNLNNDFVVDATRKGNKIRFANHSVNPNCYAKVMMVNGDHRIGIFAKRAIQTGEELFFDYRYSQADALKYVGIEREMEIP
T1 sequence (O75530 2-441 partner limits assumed): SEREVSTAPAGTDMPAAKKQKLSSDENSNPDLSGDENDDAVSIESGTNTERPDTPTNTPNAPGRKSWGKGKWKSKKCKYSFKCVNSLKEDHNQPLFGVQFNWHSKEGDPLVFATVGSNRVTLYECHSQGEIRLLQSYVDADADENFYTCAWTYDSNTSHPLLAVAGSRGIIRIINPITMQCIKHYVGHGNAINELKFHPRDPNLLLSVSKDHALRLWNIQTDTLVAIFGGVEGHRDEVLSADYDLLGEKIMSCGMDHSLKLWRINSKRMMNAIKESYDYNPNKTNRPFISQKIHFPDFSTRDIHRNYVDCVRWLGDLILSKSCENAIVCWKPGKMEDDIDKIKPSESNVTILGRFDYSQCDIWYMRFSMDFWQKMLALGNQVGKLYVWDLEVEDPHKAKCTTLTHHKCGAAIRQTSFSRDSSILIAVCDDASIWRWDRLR
T1 sequence (Q15022 2-739 partner limits assumed): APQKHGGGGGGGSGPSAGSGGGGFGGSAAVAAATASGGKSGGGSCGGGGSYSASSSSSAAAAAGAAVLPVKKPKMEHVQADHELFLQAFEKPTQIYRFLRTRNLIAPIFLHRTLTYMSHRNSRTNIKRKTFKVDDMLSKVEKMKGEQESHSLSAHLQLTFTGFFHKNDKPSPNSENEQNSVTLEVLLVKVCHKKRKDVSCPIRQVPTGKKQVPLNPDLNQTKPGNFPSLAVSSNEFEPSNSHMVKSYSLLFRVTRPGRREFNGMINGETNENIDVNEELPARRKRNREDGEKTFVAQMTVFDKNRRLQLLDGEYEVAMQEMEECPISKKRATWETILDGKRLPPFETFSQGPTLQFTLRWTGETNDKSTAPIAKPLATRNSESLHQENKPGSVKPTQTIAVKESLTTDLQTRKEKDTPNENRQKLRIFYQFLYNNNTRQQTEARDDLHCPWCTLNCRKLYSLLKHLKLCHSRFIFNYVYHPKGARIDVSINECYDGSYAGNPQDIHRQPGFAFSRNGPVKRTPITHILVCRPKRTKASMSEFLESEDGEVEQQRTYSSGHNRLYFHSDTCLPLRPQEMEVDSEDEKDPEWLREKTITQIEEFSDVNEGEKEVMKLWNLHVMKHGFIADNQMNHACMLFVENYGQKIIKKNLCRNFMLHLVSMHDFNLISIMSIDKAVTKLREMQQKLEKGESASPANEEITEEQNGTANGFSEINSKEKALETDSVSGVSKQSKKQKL
T2 sequence (Q8WTS6 2-366): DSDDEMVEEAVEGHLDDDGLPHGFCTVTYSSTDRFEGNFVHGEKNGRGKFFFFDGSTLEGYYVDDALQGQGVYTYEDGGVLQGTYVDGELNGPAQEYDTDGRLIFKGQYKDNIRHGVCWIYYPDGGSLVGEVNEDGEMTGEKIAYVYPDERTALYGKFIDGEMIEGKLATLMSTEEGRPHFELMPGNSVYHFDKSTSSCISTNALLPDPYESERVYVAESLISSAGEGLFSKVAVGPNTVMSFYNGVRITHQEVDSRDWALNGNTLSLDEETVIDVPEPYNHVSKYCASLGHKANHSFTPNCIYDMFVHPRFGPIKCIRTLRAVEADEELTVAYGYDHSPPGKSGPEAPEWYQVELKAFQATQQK

CCN(CCN(C)C)C(=O)CNCc1cc(C(=O)O)ccn1 [GS-080]
IC50 (EZH2/EED/SUZ12): > 100 µM
Kp [1]: 44
IC50 (SET7/9): > 100 µM

CCOC(=O)c1ccnc(CNCC(=O)N(CC)CCN(C)C)c1 [GS-5801]
change in H3K4 methylation species by quantitative mass spectrometry (H3K4 methylation): predominantly caused an increase in trimethylated H3K4 (H3K4me3)
levels of cccDNA (HBV cccDNA): did not alter levels of cccDNA; also recorded: does not reduce levels of cccDNA; also recorded: no sign of reduced cccDNA
